Measurements as given in PubChem BioAssay AID1845200 (Molecular Pharmacology Branch, DTP, NCI, 2023).
“And” between values parts separate entries of the source, which are not always exact repeats. Equal values may be shown once. The source made the active and inactive calls. How the source made its calls: active means viability on the fitted dose curve at most 10% of control; inactive means the rest.

Test system: ASPS-1 complex tumor spheroids, viability
Experiment: Anticancer human tumor ASPS-1 cell line growth inhibition;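 further: spheroids exposed to agents for 7 days after 3 days of growth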;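 on viability, T/C: 100% = DMSO vehicle treated spheroids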
Conditions: for viability, T/C: stronger effect = lower value
Excerpt: Multicellular complex tumor spheroid response to DNA repair inhibitors in combination with DNA-damaging drugs
This study explores the anticancer activities of DNA-damaging drugs and inhibitors of DNA damage repair, both as single agents and in combinations. Complex tumor spheroids comprised of malignant cells, endothelial cells and mesenchymal stem cells served as an in vitro model for human solid tumors. This model system incorporates physiologically relevant features and patient-derived or established malignant cell lines with clinically relevant genetic alterations from many tumor types. Twenty-six patient-derived or established malignant cell lines were evaluated representing sarcoma, melanoma, small cell lung cancer (SCLC), non-small cell lung cancer (NSCLC), as well as bladder, ovarian and pancreatic cancers. The concentration ranges selected for each drug and investigational agent were based upon clinically achievable concentrations if the clinical Cmax of the agent was known.
Compounds. The drugs and compounds olaparib (NSC753686), talazoparib (NSC767125), berzosertib (NSC777718), elimusertib (NSC800525), nedisertib (NSC802822), VX-984 (NSC792969), AZD-1390 (NSC803789), temozolomide (NSC362856), topotecan (NSC609699), trabectedin (NSC813783), staurosporine (NSC755774), and gemcitabine (NSC613327) were obtained from the National Cancer Institute (NCI) Developmental Therapeutics Program Chemical Repository. The FDA-approved anticancer drug set is available from the Developmental Therapeutics Program at https://dtp.cancer.gov/organization/dscb/obtaining/available_plates.htm. […] The stock solutions were prepared in dimethyl sulfoxide (DMSO, Sigma-Aldrich, St. Louis, MO, cat. D2650) at 400-fold the tested concentration and stored at -70 degrees C. Prior to their use, the stock solutions were diluted in fresh medium and the final DMSO concentration in the assay was 0.25% (v/v). All drugs and investigational agents were tested over a range starting from a high concentration at or near the clinical Cmax and decreasing in half-log increments. If the clinical Cmax for an agent had not been determined, the highest concentration tested was 10 microM.
Cell Lines. The patient-derived cancer cell (PDC) lines: 156681-154-R-J1-PDC, 283228-195-R-J1-PDC, 287954-098-R-J1-PDC, 292921-168-R-J2-PDC, 349418-098-R-PDC, 425362-245-T-J1-PDC, 556581-035-R-J1-PDC, and BL0293-F563-PDC were received from the NCI Patient-Derived Models Repository (PDMR, https://pdmr.cancer.gov). The established cell lines HS-SY-2 (RRID:CVCL_8719), MPNST, and SYO-1 (RRID:CVCL_7146) were obtained from the Sloan Kettering Institute. The alveolar soft parts sarcoma cell line ASPS-1 (RRID:CVCL_S738) was established at the NCI and grown from internal seed stocks. The following established cell lines were purchased from the American Type Culture Collection (ATCC, Manassas, VA): G-401 (ATCC, cat. CRL-1441, RRID:CVCL_0270), SW982 (ATCC, cat. HTB-93, RRID:CVCL_1734), VA-ES-BJ (ATCC, cat. CRL-2138, RRID:CVCL_1785), NCI-H719 (ATCC, cat. CRL-5837, RRID:CVCL_1582), NCI-H196 (ATCC, cat. CRL-5823, RRID:CVCL_1509), NCI-H841 (ATCC, cat. CRL-5845, RRID:CVCL_1595), NCI-H1618 (ATCC, cat. CRL-5879, RRID:CVCL_1480), NCI-H1876 (ATCC, cat. CRL-5902, RRID:CVCL_1503), DMS 114 (ATCC, cat. CRL-2066; RRID:CVCL_1174), NCI-H211 (ATCC, cat. CRL-5824; RRID:CVCL_1529), and SW 1271 (ATCC, cat. CRL-2177, RRID:CVCL_1716). The small cell lung cancer cell line COR-L88 was purchased from Sigma-Aldrich (cat. 92031917-1VL, RRID:CVCL_1141). The non-small cell lung cancer cell lines NCI-H226 (RRID:CVCL_1544) and NCI-H322M (RRID:CVCL_1557) were established at the NCI and grown from internal seed stocks. Pooled donor human umbilical vein endothelial cells (HUVEC, Lonza, cat. CC-2519) and human mesenchymal stem cells (hMSC, Lonza, cat. PT-2501) were purchased from Lonza (Walkersville, MD).
Cell Culture. All cells were maintained in an incubator at 37 degrees C and 5% CO2 with 95% humidity. […]

SMILES	viability, T/C (compound 0.0316 µM)	viability, T/C (compound 0.1 µM)	viability, T/C (compound 0.316 µM)	viability, T/C (compound 1 µM)	viability, T/C (compound 3.16 µM)	viability, T/C (compound 10 µM)	IC50 (curve of compound)	viability, T/C (compound 0.00949 µM)	viability, T/C (compound 0.03 µM)	viability, T/C (compound 0.0949 µM)	viability, T/C (compound 0.3 µM)	viability, T/C (compound 0.949 µM)	viability, T/C (compound 3 µM)	other results
Cc1cc(C)c(CNC(=O)c2cc(-c3ccc(CN4CCOCC4)cc3)cc3c2cnn3C2CCCC2)c(=O)[nH]1	103% and 100% and 101%	103% (2×) and 102%	103% and 92.5% and 99.4%	105% and 93.1% and 101%	96.7% and 94.2% and 93.3%	79.3% and 80.4% and 80.8%	> 10 µM							
Cc1sc2c(c1C)C(c1ccc(Cl)cc1)=NC(CC(=O)Nc1ccc(O)cc1)c1nnc(C)n1-2 (centres undefined)							> 3 µM	102% and 110% and 107%	103% and 111% and 108%	103% and 111% and 109%	108% and 105% and 100%	97.8% and 101% and 94.3%	90.6% and 87.9% and 83.7%	
Cn1ncnc1[C@H]1c2n[nH]c(=O)c3cc(F)cc(c23)N[C@@H]1c1ccc(F)cc1							> 3 µM	96.5% and 101%	105% (2×) and 98.6%	102% (2×) and 96.3%	102% and 95.5% and 98.4%	101% and 97.7% and 91.2%	88.4% and 86% and 72.1%	outcome (compound 0.00949 µM): inactive
Cn1nnc2c(C(N)=O)ncn2c1=O				98.1% [middle of 10 runs]	103% [middle of 10 runs]	92% [middle of 10 runs]								viability, T/C (compound 31.6 µM): 81% [middle of 10 runs]; viability, T/C (compound 100 µM): 70.1% [middle of 10 runs]; IC50 (compound alone, run of 11/07/2019): > 100 µM
O=C(c1cc(Cc2n[nH]c(=O)c3ccccc23)ccc1F)N1CCN(C(=O)C2CC2)CC1							> 30 µM			97.9% and 107% and 106%	95% and 115% and 111%	95.6% and 107% and 108%	101% and 108% and 102%	viability, T/C (compound 9.49 µM): 101% and 111% and 103%; viability, T/C (compound 30 µM): 89.2% and 97.1% and 60.3%
[2H]c1nc(C)nc([2H])c1-c1cc(NC[C@@H](C)c2cccc3c(C(=O)NC)ccnc23)ncn1	107% and 101% and 102%	108% and 104%	108% and 104%	106% and 113% and 95.1%	103% and 107% and 100%	97.9% and 101% and 95.2%	> 10 µM							outcome (compound 0.1 µM): inactive; outcome (compound 0.316 µM): inactive
